Experimental data: patent US20200079765A1, “SUBSTITUTED HETEROARYL PYRROLONES AND SALTS THEREOF AND USE THEREOF AS HERBICIDAL ACTIVE SUBSTANCES” (Bayer CropScience Aktiengesellschaft, priority 2016, published 2020)

Tests used:
[1] = target: T1, photosystem II (PS II) (Spinacia oleracea, UniProt P69560); experiment: Measurement of the PS II activity in thylakoid membranes (DCPIP reduction, Experimental Part 3, Table E1); format: biochemical; details: spinach thylakoid membranes
T1 construct: the chloroplasts were osmotically ruptured and the thylakoid membranes were then obtained by centrifugation; from tissue; host or cells: thylakoid membranes from fresh spinach leaves
Description: Cooled fresh spinach leaves were comminuted and homogenized in 50 mM phosphate buffer, pH 6.8. 10 mM KCl, 0.34 M sucrose (sucrose buffer) (blender, 1 g of plant material/ml). The homogenate was subsequently filtered through 4 layers of Miracloth and the chloroplasts were isolated by centrifugation, i.e. 10 min of centrifugation at 4400×g (4° C.). The sediment was suspended in 25 ml of sucrose buffer and re-centrifuged for 10 min at 4400×g (4° C.). The sediment was then suspended in 40 ml of 50 mM phosphate buffer, pH 6.8, 10 mM KCl, without sucrose. In this step, the chloroplasts were osmotically ruptured and the thylakoid membranes were then obtained by centrifugation (10 min, 4400×g, 4° C.). The membrane sediment was finally suspended in about 20 ml of 50 mM phosphate buffer, pH 6.8, 10 mM KCl. Following protein determination and activity determination, the membrane suspension was divided into aliquots and frozen in liquid nitrogen. The aliquots were stored at −80° C. Under these conditions, the photosystem II preparation was storage stable for at least three months. The activity determination of photosystem II (PS II) was then carried out using the following test principle: The electron transfer from PS II to an artificial electron acceptor, 2,6-dichlorophenolindophenol (DCPIP), was measured with exposure to light. The concentration of the blue oxidized form of DCPIP was determined spectrophotometrically at wavelength λ=595 nm. […] The activity determination was carried out in microtiter plates (96 cavities) in a reaction volume of 200 μl. Here, 155 μl of dilute membrane suspension were initially charged in 50 mM of phosphate buffer, pH 6.8, 10 mM KCl. Depending on the activity of the PS II preparation, the dilution was adjusted such that the measurement of the decrease in absorption (λ=595 nm) was linear for at least 10 min. In each case 5 μl solution of the test compounds of a concentration of 100 μM in DMSO were added to the enzyme suspension; controls contained 5 μl DMSO; the final concentration of DMSO in the reaction batch was thus 2.5% (v/v); this concentration had no adverse effect on the enzymatic activity. On each microtiter plate, a known PS II inhibitor, for example metribuzin, was used as standard, which allowed the quality of the PS II test to be assessed. The reaction was started by addition of 40 μl DCPIP solution (600 μM in distilled water); the final concentration of DCPIP was 120 μM. Measurement of absorption was carried out over a period of 10 min at 22° C. and with exposure to light. Using metribuzin as comparative substance, the results for the efficacy of the compounds of the general formula (I) at 100 μM are stated in the table below using the following classification: ++++ (inhibition≥90%), +++ (90%>inhibition≥70%), ++ (70%>inhibition≥50%), + (50%>inhibition≥30%).
Effects of selected compounds of the general formula (I) according to the following table E1: […]

[2] = test system: Abutilon theophrasti; experiment: Herbicidal post-emergence action (Experimental Part 2, C); format: in vivo; details: post-emergence (Part 2), application rate 320 g/ha, rated visually after about 3 weeks
Description: (§1) Seeds of mono- and dicotyledonous weed plants were placed in plastic pots in sandy loam soil (doubly sown with in each case one species of mono- or dicotyledonous weed plants per pot), covered with soil and cultivated in a greenhouse under controlled growth conditions. 2 to 3 weeks after sowing, the test plants were treated at the one-leaf stage. The compounds of the invention, formulated in the form of wettable powders (WP) or as emulsion concentrates (EC), were applied onto the green parts of the plants as aqueous suspension or emulsion with addition of 0.5% additive at a water application rate of 600 liters per hectare (converted). After the test plants had been kept in the greenhouse under optimum growth conditions for about 3 weeks, the activity of the preparations was rated visually in comparison to untreated controls. For example, 100% activity=the plants have died, 0% activity=like control plants. Tables C1 to C8 below show the effects of selected compounds of the general formula (I) according to Tables I.1 to I.116 on various harmful plants and an application rate corresponding to 1280 g/ha or 320 g/ha, which were obtained by the experimental procedure mentioned above.

[3] = test system: Stellaria media; experiment: as above; format: in vivo; details: post-emergence (Part 2), application rate 320 g/ha, rated visually after about 3 weeks
Description: as §1

[4] = test system: Matricaria inodora; experiment: as above; format: in vivo; details: post-emergence (Part 2), application rate 320 g/ha, rated visually after about 3 weeks
Description: as §1

[5] = test system: Echinochloa crus-galli; experiment: as above; format: in vivo; details: post-emergence (Part 2), rated visually after about 3 weeks
Description: as §1

[6] = test system: Poa annua; experiment: as above; format: in vivo; details: post-emergence (Part 2), application rate 320 g/ha, rated visually after about 3 weeks
Description: as §1

[7] = test system: Amaranthus retroflexus; experiment: as above; format: in vivo; details: post-emergence (Part 2), application rate 320 g/ha, rated visually after about 3 weeks
Description: as §1

[8] = test system: Lolium rigidum; experiment: as above; format: in vivo; details: post-emergence (Part 2), rated visually after about 3 weeks
Description: as §1

[9] = test system: Abutilon theophrasti; experiment: Herbicidal pre-emergence action (Experimental Part 2, D); format: in vivo; details: pre-emergence (Part 2), application rate 320 g/ha, scored visually after about 3 weeks
Excerpt: (§2) Seeds of mono- and dicotyledonous weed plants were placed in plastic pots in sandy loam soil (doubly sown with in each case one species of mono- or dicotyledonous weed plants per pot) and covered with soil. The compounds of the invention, formulated in the form of wettable powders (WP) or as emulsion concentrates (EC), were then applied onto the surface of the covering soil as aqueous suspension or emulsion with addition of 0.5% additive at a water application rate of 600 liters per hectare (converted). After the treatment, the pots are placed in a greenhouse and kept under good growth conditions for the trial plants. After about 3 weeks, the effect of the preparations was scored visually in comparison with untreated controls as percentages. For example, 100% activity=the plants have died, 0% activity=like control plants. Tables D1 to D8 below show the effects of selected compounds of the general formula (I) according to Tables I.1 to I.116 on various harmful plants and an application rate corresponding to 1280 g/ha or 320 g/ha, which were obtained by the experimental procedure mentioned above.

[10] = test system: Stellaria media; experiment: as above; format: in vivo; details: pre-emergence (Part 2), application rate 320 g/ha, scored visually after about 3 weeks
Excerpt: as §2

[11] = test system: Matricaria inodora; experiment: as above; format: in vivo; details: pre-emergence (Part 2), application rate 320 g/ha, scored visually after about 3 weeks
Excerpt: as §2

[12] = test system: Echinochloa crus-galli; experiment: as above; format: in vivo; details: pre-emergence (Part 2), application rate 320 g/ha, scored visually after about 3 weeks
Excerpt: as §2

[13] = test system: Poa annua; experiment: as above; format: in vivo; details: pre-emergence (Part 2), application rate 320 g/ha, scored visually after about 3 weeks
Excerpt: as §2

[14] = test system: Amaranthus retroflexus; experiment: as above; format: in vivo; details: pre-emergence (Part 2), application rate 320 g/ha, scored visually after about 3 weeks
Excerpt: as §2

[15] = test system: Lolium rigidum; experiment: as above; format: in vivo; details: pre-emergence (Part 2), scored visually after about 3 weeks
Excerpt: as §2

[16] = test system: Setaria viridis; experiment: as above; format: in vivo; details: pre-emergence (Part 2), scored visually after about 3 weeks
Excerpt: as §2

[17] = test system: Setaria viridis; experiment: Herbicidal post-emergence action (Experimental Part 2, C); format: in vivo; details: post-emergence (Part 2), application rate 320 g/ha, rated visually after about 3 weeks
Description: as §1

Effect (inhibition of PS II activity) [1] | Compound | Abutilon theophrasti, herbicidal activity [2] [%] | Stellaria media, herbicidal activity [3] [%] | Matricaria inodora, herbicidal activity [4] [%] | Echinochloa crus-galli, herbicidal activity ([5]; application rate 320 g/ha) [%] | Poa Annua, herbicidal activity [6] [%] | Amaranthus retroflexus, herbicidal activity [7] [%] | Lolium rigidum, herbicidal activity ([8]; application rate 320 g/ha) [%] | Abutilon theophrasti, herbicidal activity [9] [%] | Stellaria media, herbicidal activity [10] [%] | Matricaria inodora, herbicidal activity [11] [%] | Echinochloa crus-galli, herbicidal activity [12] [%] | Poa Annua, herbicidal activity [13] [%] | Amaranthus retroflexus, herbicidal activity [14] [%] | Lolium rigidum, herbicidal activity ([15]; application rate 320 g/ha) [%] | Setaria viridis, herbicidal activity ([16]; application rate 320 g/ha) [%] | Echinochloa crus-galli, herbicidal activity ([5]; application rate 1280 g/ha) [%] | Lolium rigidum, herbicidal activity ([8]; application rate 1280 g/ha) [%] | Setaria viridis, herbicidal activity [17] [%] | also measured
++++ (inhibition≥90%) | CC1=CC(O)N(c2noc(C(C)(C)C)c2C)C1=O (stereo not drawn) [I.2-177] | 100 | 100 | 100 | 100 | 100 | 100 | 90 | 100 | 100 | 100 | 100 | 100 | 90 | 90 | 100 | – | – | – | –
– | CCC(=O)OC1C=C(C)C(=O)N1c1cc(C(C)(C)C)no1 (stereo not drawn) [I.6-290] | 100 | 100 | 100 | – | 100 | 100 | – | 100 | 100 | 100 | 90 | 100 | 100 | 90 | 90 | 100 | 90 | 100 | –
++++ (inhibition≥90%) | CC1=CC(O)N(c2cc(C(C)(C)C)on2)C1=O (stereo not drawn) [I.2-162, 5-hydroxy-3-methyl-1-(5-tert-butyl-1,2-isoxazol-3-yl)-1,5-dihydro-2H-pyrrol-2-one] | 100 | 100 | 100 | 100 | 100 | 100 | 90 | 100 | 100 | 100 | 100 | 100 | 100 | 90 | 100 | – | – | 100 | –
++++ (inhibition≥90%) | CC1=CC(O)N(c2cc(C(C)(C)C)no2)C1=O (stereo not drawn) [I.2-290, 5-hydroxy-3-methyl-1-(3-tert-butyl-1,2-isoxazol-5-yl)-1,5-dihydro-2H-pyrrol-2-one] | 100 | 100 | 100 | – | 100 | 100 | – | 100 | 100 | 100 | 100 | 100 | 100 | – | – | 100 | 100 | 100 | Lolium rigidum, herbicidal activity ([15]; application rate 1280 g/ha): 100%; Setaria viridis, herbicidal activity ([16]; application rate 1280 g/ha): 100%
